The subject of this experiment is C57BL/6 DIO mice. The experiment is described as follows: Daily food intake of C57BL/6 DIO mice. In kind it is in vivo. The conditions noted are these: for Food intake (food weights in g/day): Belaronib 0.3 mg/kg SC, Celastrol 0.2 mg/kg IP daily, mean. The protocol: C57BL/6 mice were treated with test compound (Celastrol) or controls as shown in the table below from Day 1 to Day 15. […] One mouse was excluded from the study because it appeared resistant to nestlet shredding prior to treatment.
Male C57BL/6 DIO mice were obtained from Jackson Labs (Bar Harbor, ME). The mice arrived at ages 17 weeks and mice were housed 3 per cage on arrival. Prior to dosing in the study, the mice were singly housed.
All treatment volumes were 10 mL/kg. Utilizing the art-recognized nestlet shredding mouse model, […]. Celastrol and the vehicle control were administered intraperitoneally using a 30G needle. Beloranib was administered subcutaneously using a 30G needle. All treatments were administered daily in the afternoon at 17:00 h, 1 hour before dark cycle from Day 1 to end of dosing.
Celastrol was dissolved in a pharmaceutically-acceptable excipient, e.g., 50% Solutol/50% DMAC, and this stock solution aliquoted and stored at −80° C. until treatment day. On the day of treatment, an aliquot of the stock solution was thawed and diluted […] with saline to obtain the desired dosing solution strength in 5% Solutol/5% dimethylacetamide/90% saline. The vehicle control was 5% Solutol/5% dimethylacetamide/90% saline. Beloranib was dissolved in 100% DMSO, and this stock solution was aliquoted and stored at −80° C. until treatment day. On the day of treatment, an aliquot of the stock solution was thawed and diluted 1:10 with deionized (DI) water to obtain the desired dosing solution strength in 10% DMSO.
Daily food intake was calculated based on remaining food weight compared to food weight on the previous day using an Ohaus model CS 200 balance.

The results in this text go back to patent US20260191807A1, “COMPOSITIONS AND METHODS FOR TREATMENT OF PRADER-WILLI SYNDROME” (ERX Pharmaceuticals Inc., priority 2022, published 2026).

`CC1=C(O)C(=O)C=C2C1=CC=C1[C@@]2(C)CC[C@@]2(C)[C@@H]3C[C@](C)(C(=O)O)CC[C@]3(C)CC[C@]12C` [Celastrol]: the “cumulative food intake, average total for the study” value (15-day study, Beloranib 0.3 mg/kg SC, celastrol 0.2 mg/kg IP daily, vehicle 32.6 g) came out at 17.4 g/mouse. The “effect on food intake (in words)” value (Celastrol compared with positive control Beloranib) was “more potent and sustained effect on food intake”. Moreover, the “Food intake (food weights in g/day)” value by setting is: (Day 1) 2.7 g/day; (Day 2) 1.2 g/day; (Day 3) 1.1 g/day; (Day 4) 0.9 g/day; (Day 5) 0.7 g/day; (Day 6) 0.9 g/day. Also, the “Food intake (food weights in g/day)” value (Day 7) stood at 1.1 g/day; the “Food intake (food weights in g/day)” value (Day 8) amounted to 1.2 g/day; the “Food intake (food weights in g/day)” value (Day 9) came out at 0.7 g/day; the “Food intake (food weights in g/day)” value (Day 10) came to 0.9 g/day; the “Food intake (food weights in g/day)” value (Day 11) worked out at 1.1 g/day; the “Food intake (food weights in g/day)” value (Day 12) is 1.3 g/day. For the same compound, the “Food intake (food weights in g/day)” value worked out at 1.4 g/day (Day 13), 1.2 g/day (Day 14) and 1.0 g/day (Day 15). The “food intake, average” value (from day 2 throughout the 15-day study, 0.2 mg/kg IP daily, vehicle around 2.2) stood at 1.0 g/day/mouse.
